Here are results for one molecule from patent US6503948B2, “Method for prevention or treatment of acute allograft rejection and a pharmaceutical composition therefor” (Southern Research Institute, priority 1998, dated 2003).

The test system of this assay is acute allograft rejection (heart graft, Fischer donor to Long-Evans recipient). Briefly: Intra abdominal heterotopic cardiografting in rats with donor pretreatment; graft survival. The format is in vivo, rat. As for the experimental part:
1-(2-chloroethyl)-1-nitroso-3-(3-methylcyclohexyl)urea was administered 5 mg per donor rat at a dosage of 20 mg/kg 24 hours prior to removal of heart tissue for transplantation. Administration of the compound above results in survival of 25 days, 27 days, 30 days, 32 days, and greater than 60 days.
According to this experiment, the donor rats were Fischer strain and the recipients were Long-Evans strains. These strains are mismatched at the major histocompatibility antigenic site (Ag locus). In the experiment, intra abdominal heterotopic cardiografting was performed using a modification of techniques described by Ono and Lindsey, Improved Technique of Heart Transplantation In Rats, Journal of Thoracic and Cardiovascular Surgery, 57: 225 (1969) and Lee et al., Heterotopic Heart and Lung Transplantation in the Rat, American Journal of Pathology, 59: 279 (1970), the entire contents of the disclosures of both of which are hereby incorporated by reference.
According to this experiment, a total dose of 20 milligrams per kilogram of the above compound was administered to donor rats 24 hours prior to transplantation. According to this dosage regimen, survival was prolonged from 10 to 25-60 days. Survival for 60 days indicated permanent survival, in other words, while typically surviving 10 days, the rats lived for 25-60 days, with the rats living to 60 days having a permanent survival.

Several values for one entry are separate records, joined by “and”; a condition that tells them apart may be missing. Equal entries are not always repeated.

Regarding `CC1CCCC(NC(=O)N(CCCl)N=O)C1` (stereo not shown) [1-(2-chloroethyl)-1-nitroso-3-(3-methylcyclohexyl)urea], the survival is 25 days and 27 days and 30 days and 32 days and greater than 60 days and 25-60 days (5 mg per donor rat, 20 mg/kg, given to donor 24 hours prior to removal of heart tissue, Fischer donors, Long-Evans recipients, typical survival 10 days); “increase in survival” (recipients also treated with a single small dose of Cyclosporine A). For the same molecule, the “median survival (considering dying rats only) versus the compound alone” value (donors treated with 20 mg/kg compound combined with 100 mg/kg methotrexate) is reported as “increase in median survival”. Further, under “rats surviving for 60 days, sacrificed after two years, donor dose 20 mg/kg”, the “microscopic evaluation of hearts” value was “normal hearts”.
